According to patent US11299485B2, “Thiophene derivative and use thereof” (FUJIMOTO CO., LTD., priority 2018, dated 2022):

Legend:
Format in all cases: cell-based
[1] = system: Pfeiffer cells; experiment: Human diffuse large B-cell lymphoma cell line Pfeiffer proliferation suppression test; conditions: 144 h, compound 10 μM, 3 days + re-plating with compound 3 days, WST-8, read-out: cell survival rate (% of control) Pfeiffer
Method in brief: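 Pfeiffer cells were seeded at 1.3×10^5 cells/mL and dosed the next day with compound at 10 μM final (DMSO control), then grown 3 days at 37 °C, 5% CO2. An aliquot was then passaged into a fresh plate with compound re-added at 10 μM final for 3 more days. Proliferation was read by WST-8.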

[2] = system: human peripheral blood mononuclear cells (PBMC); experiment: Cytotoxicity test using human peripheral blood mononuclear cells (PBMC); conditions: compound 10 μg/mL, LPS, 24 hr, WST-1 or WST-8
Procedure: Example 56: Cytotoxicity Test Using Human Peripheral Blood Mononuclear Cells (PBMC)
Peripheral blood of a healthy adult was collected in a Venoject II vacuum blood collection tube (Terumo, containing EDTA/2Na), and then diluted two-fold with an equal volume of OTSUKA NORMAL SALINE (Otsuka Pharmaceutical Co., Ltd.). The diluted blood was mixed with Lymphoprep (AXIS-SHIELD) in half the volume of the diluted blood, dispensed into a 15 mL conical tube, and centrifuged at room temperature for 20 min (2,100 rpm). The mononuclear cells accumulated at the interface between Lymphoprep and plasma was transferred to a 50 mL conical tube, diluted with OTSUKA NORMAL SALINE, and the mononuclear cells suspension was centrifuged at room temperature for 10 min (1,150 rpm) and then the supernatant was removed. The mononuclear cells fraction obtained as a precipitate was suspended in an appropriate amount of medium A, and diluted as appropriate with 0.4% trypan blue solution (Sigma-Aldrich Co. LLC.). The number of viable cells was counted with a hemocytometer (ERMA INC.). It was diluted with medium A such that the value obtained was 5×10^5 cells/mL. On the other hand, 37.5 μL of medium A, 2.5 μL of 0.4 mg/mL test compound solution (DMSO solution 10-fold diluted with medium A), and 10 μL of 10 μg/mL lipopolysaccharide (Sigma-Aldrich Co. LLC.) solution (diluted with medium A) were each added in advance to the same well of a Falcon 96-well flat bottom plate (Corning Incorporated), and the above-mentioned cell suspension was dispensed at 50 μL/well (final concentration of test compound 10 μg/mL). 2.5 μL of DMSO diluted 10-fold with medium A was added to the control well instead of the compound solution. After culturing at 37° C. in a 5% CO2 stream for 24 hr, the cell survival rate was measured using WST-1 (DOJINDO LABORATORIES) or WST-8 kit (KISHIDA CHEMICAL Co., Ltd.) and according to each instruction manual attached thereto.

[3] = system: MM.1S cells; experiment: Human myeloma cell line MM.1S proliferation suppression test; conditions: MM1.S, 72 h, compound 10 μM, 3 days, WST-1 or WST-8, read-out: cell survival rate (% of control) MM.1S
Method in brief: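 Cells at 2×10^5 cells/mL in RPMI1640 + 10% FCS, mixed 1:1 with compound diluted from DMSO stock (final 10 μM) versus DMSO-only control. Cultured 3 days at 37 °C, 5% CO2; proliferation read with WST-1 or WST-8.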

[4] = system: REC-1 cells; experiment: Human mantle cell lymphoma cell line REC-1 proliferation suppression test; conditions: Rec1, 72 h, compound 10 μM, 3 days, WST-8, read-out: cell survival rate (% of control) REC-1
Method in brief: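 Cells were plated at 1.3×10^5 cells/mL, and the next day test compound was added at a final 10 μM, with DMSO-only medium as control. After 3 days at 37° C under 5% CO2, proliferation was measured with WST-8.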

| SMILES | viability at 10 µM [1] [%] | cell survival rate (% of control) PBMC [2] | viability at 10 µM [3] [%] | viability at 10 µM [4] [%] |
| --- | --- | --- | --- | --- |
| O=C1CCC(n2cc(-c3cscc3OCc3cccnc3)nn2)C(=O)N1 (stereo not drawn) [compound 35, 3-{4-[4-(pyridin-3-ylmethoxy)thiophen-3-yl]-1H-1,2,3-triazol-1-yl}piperidine-2,6-dione] | 104 | 100 % of control | 55 | 39 |
| O=C1CCC(n2cc(-c3cscc3OCc3ccc(CN4CCOCC4)cc3)nn2)C(=O)N1 (stereo not drawn) [compound 36, 3-(4-{4-[4-(morpholinomethyl)benzyloxy]thiophen-3-yl}-1H-1,2,3-triazol-1-yl)piperidine-2,6-dione] | 34 | 59 % of control | 16 | 2 |
| COCc1ccc(COc2cscc2-c2cn(C3CCC(=O)NC3=O)nn2)cc1 (stereo not drawn) [compound 37, 3-(4-{4-[4-(methoxymethyl)benzyloxy]thiophen-3-yl}-1H-1,2,3-triazol-1-yl)piperidine-2,6-dione] | 71 | 99 % of control | 24 | 17 |
| C[C@@H]1CN(Cc2ccc(COc3cscc3-c3cn(C4CCC(=O)NC4=O)nn3)cc2)C[C@H](C)O1 (stereo partly drawn) [compound 38, 3-{4-[4-(4-{[(2S,6R)-2,6-dimethylmorpholino]methyl}benzyloxy)thiophen-3-yl]-1H-1,2,3-triazol-1-yl}piperidine-2,6-dione] | 29 | 110 % of control | 24 | 5 |
| O=C1CCC(n2cc(-c3cscc3OCc3cccc(CN4CCOCC4)c3)nn2)C(=O)N1 (stereo not drawn) [compound 39, 3-(4-{4-[3-(morpholinomethyl)benzyloxy]thiophen-3-yl}-1H-1,2,3-triazol-1-yl)piperidine-2,6-dione] | 69 | 98 % of control | 26 | 24 |
| O=C1CCC(n2cc(-c3cscc3OCc3ccccc3CN3CCOCC3)nn2)C(=O)N1 (stereo not drawn) [compound 40, 3-(4-{4-[2-(morpholinomethyl)benzyloxy]thiophen-3-yl}-1H-1,2,3-triazol-1-yl)piperidine-2,6-dione] | 91 | 96 % of control | 35 | 33 |
| Cl.O=C1CCC(n2cc(-c3cscc3OCc3ccc(CN4CCCC4)cc3)nn2)C(=O)N1 (stereo not drawn) [compound 41, 3-(4-{4-[4-(pyrrolidin-1-ylmethyl)benzyloxy]thiophen-3-yl}-1H-1,2,3-triazol-1-yl)piperidine-2,6-dione hydrochloride] | 72 | 110 % of control | 32 | 20 |
| Cl.O=C1CCC(n2cc(-c3cscc3OCc3ccc(CN4CCCCC4)cc3)nn2)C(=O)N1 (stereo not drawn) [compound 42, 3-(4-{4-[4-(piperidin-1-ylmethyl)benzyloxy]thiophen-3-yl}-1H-1,2,3-triazol-1-yl)piperidine-2,6-dione hydrochloride] | 63 | 103 % of control | 27 | 13 |
| O=C1CCC(n2cc(-c3cscc3OCc3ccc(Cl)cc3)nn2)C(=O)N1 (stereo not drawn) [compound 43, 3-{4-[4-(4-chlorobenzyloxy)thiophen-3-yl]-1H-1,2,3-triazol-1-yl}piperidine-2,6-dione] | 89 | 98 % of control | 30 | 23 |
| CC(Oc1cscc1-c1cn(C2CCC(=O)NC2=O)nn1)c1ccccc1 (stereo not drawn) [compound 44, 3-{4-[4-(1-phenylethoxy)thiophen-3-yl]-1H-1,2,3-triazol-1-yl}piperidine-2,6-dione] | 94 | 105 % of control | 33 | 30 |
| Cl.O=C1CCC(n2cc(-c3cscc3OCc3ccc(CCN4CCOCC4)cc3)nn2)C(=O)N1 (stereo not drawn) [compound 45, 3-(4-{4-[4-(2-morpholinoethyl)benzyloxy]thiophen-3-yl}-1H-1,2,3-triazol-1-yl)piperidine-2,6-dione hydrochloride] | 78 | 110 % of control | 31 | 26 |
| CN(C)Cc1ccc(COc2cscc2-c2cn(C3CCC(=O)NC3=O)nn2)cc1.Cl (stereo not drawn) [compound 46, 3-[4-(4-{4-[(dimethylamino)methyl]benzyloxy}thiophen-3-yl)-1H-1,2,3-triazol-1-yl]piperidine-2,6-dione hydrochloride] | 84 | 110 % of control | 35 | 23 |
| O=C1CCC(n2cc(-c3cscc3OCc3cc4ccccc4s3)nn2)C(=O)N1 (stereo not drawn) [compound 47, 3-{4-[4-(benzo[b]thiophen-2-ylmethoxy)thiophen-3-yl]-1H-1,2,3-triazol-1-yl}piperidine-2,6-dione] | 99 | 106 % of control | 64 | 33 |
| O=C1CCC(n2nnc(-c3ccsc3)c2Br)C(=O)N1 (stereo not drawn) [compound 48, 3-[5-bromo-4-(thiophen-3-yl)-1H-1,2,3-triazol-1-yl]piperidine-2,6-dione] | 98 | 138 % of control | 85 | 98 |
| COc1cscc1-c1nnn(C2CCC(=O)NC2=O)c1I (stereo not drawn) [compound 49, 3-[5-iodo-4-(4-methoxythiophen-3-yl)-1H-1,2,3-triazol-1-yl]piperidine-2,6-dione] | 75 | 102 % of control | 48 | 24 |
